Laboratory results: patent US9079930B2, “Substituted pyrimidines” (MERCK SHARP & DOHME CORP., priority 2011, dated 2015)

Target: T1, FLAG-tagged full length PHD2 (Homo sapiens, UniProt Q9GZT9)
T1 construct: FLAG-tagged full length PHD2 expressed in and purified from baculovirus-infected Sf9 cells; FLAG; made in house; host or cells: baculovirus-infected Sf9 cells
Assay: PHD2 inhibition assay (time resolved fluorescence, HIF-1α peptide hydroxylation, VHL complex detection)
Type: biochemical
Details: 0.2 μM 2-oxoglutarate, 0.5 μM HIF-1α peptide
Method: To each well of a 96-well plate was added 1 μL of test compound in DMSO and 20 μl of assay buffer (50 mM Tris pH 7.4/0.01% Tween-20/0.1 mg/ml bovine serum albumin/10 μM ferrous sulfate/i mM sodium ascorbate/20 μg/ml catalase) containing 0.15 μg/ml FLAG-tagged full length PHD2 expressed in and purified from baculovirus-infected Sf9 cells. After a 30 min preincubation at room temperature, the enzymatic reactions were initiated by the addition of 4 μL of substrates (final concentrations of 0.2 μM 2-oxoglutarate and 0.5 μM HIF-1α peptide biotinyl-DLDLEMLAPYIPMDDDFQL (SEQ ID NO: 1)). After 2 hr at room temperature, the reactions were terminated and signals were developed by the addition of a 25 μL quench/detection mix to a final concentration of 1 mM ortho-phenanthroline, 0.1 mM EDTA, 0.5 nM anti-(His)6 LANCE reagent (Perkin-Elmer Life Sciences), 100 nM AF647-labeled streptavidin (Invitrogen), and 2 μg/ml (His)6-VHL complex (S. Tan (2001) Protein Expr. Purif. 21, 224-234). The ratio of time resolved fluorescence signals at 665 and 620 nm was determined, and percent inhibition was calculated relative to an uninhibited control sample run in parallel.

T1 sequence (Q9GZT9 whole entry): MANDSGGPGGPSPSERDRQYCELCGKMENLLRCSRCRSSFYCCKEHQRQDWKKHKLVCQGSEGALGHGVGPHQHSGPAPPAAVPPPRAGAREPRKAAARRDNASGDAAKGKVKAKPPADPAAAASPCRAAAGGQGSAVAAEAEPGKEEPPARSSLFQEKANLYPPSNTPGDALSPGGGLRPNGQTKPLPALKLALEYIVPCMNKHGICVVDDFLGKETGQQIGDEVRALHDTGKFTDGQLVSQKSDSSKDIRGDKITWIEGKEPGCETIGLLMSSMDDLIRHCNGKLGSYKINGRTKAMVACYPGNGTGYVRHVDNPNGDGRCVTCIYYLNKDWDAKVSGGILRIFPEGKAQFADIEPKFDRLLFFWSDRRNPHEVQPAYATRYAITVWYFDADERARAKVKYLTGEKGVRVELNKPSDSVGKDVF

SMILES	IC50
CCOP(=O)(OCC)c1ccc(C(NC(=O)c2cnc(-n3cccn3)nc2O)c2ccccc2)cc1 (stereo not shown) [Compound 8-1, Diethyl 4-((4-hydroxy-2-(1H-pyrazol-1-yl)pyrimidine-5-carboxamido)(phenyl)methyl)phenylphosphonate]	0.0005 to 0.02 µM
CCOP(=O)(O)c1ccc(C(NC(=O)c2cnc(-n3cccn3)nc2O)c2ccccc2)cc1 (stereo not shown) [Compound 8-2, Ethyl hydrogen 4-((4-hydroxy-2-(1H-pyrazol-1-yl)pyrimidine-5-carboxamido)(phenyl)methyl)phenylphosphonate]	0.0005 to 0.02 µM
CCOP(C)(=O)c1ccc(C(NC(=O)c2cnc(-n3cccn3)nc2O)c2ccccc2)cc1 (stereo not shown) [Compound 8-3, Ethyl 4-((4-hydroxy-2-(1H-pyrazol-1-yl)pyrimidine-5-carboxamido)(phenyl)methyl)phenyl(methyl)phosphinate]	0.0005 to 0.02 µM
CCOP(=O)(OCC)c1ccc(C(NC(=O)c2cnc(-c3cccnn3)nc2O)c2ccccc2)cc1 (stereo not shown) [Compound 8-5, Diethyl 4-((4-hydroxy-2-(pyridazin-3-yl)pyrimidine-5-carboxamido)(phenyl)methyl)phenylphosphonate]	0.0005 to 0.02 µM
COc1ccc(C(NC(=O)c2cnc(-n3cccn3)nc2O)c2ccc([PH](=O)O)cc2)cc1 (stereo not shown) [Compound 9-1, 4-((4-Hydroxy-2-(1H-pyrazol-1-yl)pyrimidine-5-carboxamido)(4-methoxyphenyl)methyl)phenylphosphinic acid]	0.0005 to 0.02 µM
COc1ccc(C(NC(=O)c2cnc(-c3cccnn3)nc2O)c2ccc([PH](=O)O)cc2)cc1 (stereo not shown) [Compound 9-2, 4-((4-hydroxy-2-(pyridazin-3-yl)pyrimidine-5-carboxamido)(4-methoxyphenyl)methyl)phenylphosphinic acid]	0.0005 to 0.02 µM
CCOP(=O)(OCC)C(NC(=O)c1cnc(-n2cccn2)nc1O)c1ccc(OC)cc1 (stereo not shown) [Compound 10-1, Diethyl (4-hydroxy-2-(1H-pyrazol-1-yl)pyrimidine-5-carboxamido)(4-methoxyphenyl)methylphosphonate]	0.0005 to 0.02 µM
CCOP(=O)(OCC)c1ccc(C(C)C(=O)Nc2cnc(-n3cccn3)nc2O)cc1 (stereo not shown) [Compound 11-1, Diethyl 4-(1-(4-hydroxy-2-(1H-pyrazol-1-yl)pyrimidin-5-ylamino)-1-oxopropan-2-yl)phenylphosphonate]	0.1 to 10 µM
CCOP(=O)(OCC)c1ccc(C(C)(C)C(=O)Nc2cnc(-n3cccn3)nc2O)cc1 [Compound 12-1, Diethyl 4-(1-(4-hydroxy-2-(1H-pyrazol-1-yl)pyrimidin-5-ylamino)-2-methyl-1-oxopropan-2-yl)phenylphosphonate]	0.1 to 10 µM
CCOP(=O)(OCC)c1ccc(C(C(=O)Nc2cnc(-n3cccn3)nc2O)C(C)C)cc1 (stereo not shown) [Compound 13-1, Diethyl 4-(1-(4-hydroxy-2-(1H-pyrazol-1-yl)pyrimidin-5-ylamino)-3-methyl-1-oxobutan-2-yl)phenylphosphonate]	0.02 to 0.1 µM
CCOP(=O)(OCC)c1ccc(C(C(=O)Nc2cnc(-n3cccn3)nc2O)c2ccccc2)cc1 (stereo not shown) [Compound 14-1, Diethyl 4-(2-(4-hydroxy-2-(1H-pyrazol-1-yl)pyrimidin-5-ylamino)-2-oxo-1-phenylethyl)phenylphosphonate]	0.0005 to 0.02 µM
CCOP(=O)(OCC)c1ccc(C(C(=O)Nc2cnc(-c3cccnn3)nc2O)c2ccccc2)cc1 (stereo not shown) [Compound 14-2, Diethyl 4-(2-(4-hydroxy-2-(pyridazin-3-yl)pyrimidin-5-ylamino)-2-oxo-1-phenylethyl)phenylphosphonate]	0.1 to 10 µM
CC(NC(=O)c1cnc(-n2cccn2)nc1O)c1ccc(P(=O)(O)O)cc1 (stereo not shown) [Compound 15-1, 4-(1-(4-hydroxy-2-(1H-pyrazol-1-yl)pyrimidine-5-carboxamido)ethyl)phenylphosphonic acid]	0.02 to 0.1 µM
CP(=O)(O)c1ccc([C@H](NC(=O)c2cnc(-n3cccn3)nc2O)C2CCCCC2)cc1 [Compound 26-1, 4-((R)-cyclohexyl(4-hydroxy-2-(1H-pyrazol-1-yl)pyrimidine-5-carboxamido)methyl)phenyl(methyl)phosphinic acid]	0.0005 to 0.02 µM
CP(=O)(O)c1ccc([C@@H](NC(=O)c2cnc(-n3cccn3)nc2O)C2CCCCC2)cc1 [Compound 27-1, 4-((S)-cyclohexyl(4-hydroxy-2-(1H-pyrazol-1-yl)pyrimidine-5-carboxamido)methyl)phenyl(methyl)phosphinic acid]	0.0005 to 0.02 µM
CP(=O)(O)c1ccc([C@@H](NC(=O)c2cnc(-n3cc(F)cn3)nc2O)c2ccc(F)cc2)cc1 [Compound 28-1, 4-((S)-(2-(4-fluoro-1H-pyrazol-1-yl)-4-hydroxypyrimidine-5-carboxamido)(4-fluorophenyl)methyl)phenyl(methyl)phosphinic acid]	0.1 to 10 µM
CP(=O)(O)c1ccc([C@H](NC(=O)c2cnc(-n3cc(F)cn3)nc2O)c2ccc(F)cc2)cc1 [Compound 29-1, 4-((R)-(2-(4-fluoro-1H-pyrazol-1-yl)-4-hydroxypyrimidine-5-carboxamido)(4-fluorophenyl)methyl)phenyl(methyl)phosphinic acid]	0.0005 to 0.02 µM
O=C(NC(c1ccccc1)P(=O)(O)O)c1cnc(-c2cccnn2)nc1O (stereo not shown) [Compound 30-1, (4-hydroxy-2-(pyridazin-3-yl)pyrimidine-5-carboxamido)(phenyl)methylphosphonic acid]	0.02 to 0.1 µM

The remaining lines, values ahead:

IC50	SMILES
0.0005 to 0.02 µM	CP(=O)(O)c1ccc(C(NC(=O)c2cnc(-n3cccn3)nc2O)c2ccccc2)cc1 (stereo not shown) [Compound 8-4, 4-((4-Hydroxy-2-(1H-pyrazol-1-yl)pyrimidine-5-carboxamido)(phenyl)methyl)phenyl(methyl)phosphinic acid]
0.0005 to 0.02 µM	C[C@@H](NC(=O)c1cnc(-n2cccn2)nc1O)c1ccc(P(=O)(O)O)cc1 [Compound 15-2, (R)-4-(1-(4-hydroxy-2-(1H-pyrazol-1-yl)pyrimidine-5-carboxamido)ethyl)phenyl phosphonic acid]
0.1 to 10 µM	C[C@H](NC(=O)c1cnc(-n2cccn2)nc1O)c1ccc(P(=O)(O)O)cc1 [Compound 15-3, (S)-4-(1-(4-hydroxy-2-(1H-pyrazol-1-yl)pyrimidine-5-carboxamido)ethyl)phenylphosphonic acid]
0.0005 to 0.02 µM	CCCP(=O)(O)c1ccc(C(NC(=O)c2cnc(-n3cccn3)nc2O)c2ccccc2)cc1 (stereo not shown) [Compound 16-1, 4-((4-hydroxy-2-(1H-pyrazol-1-yl)pyrimidine-5-carboxamido)(phenyl)methyl)phenyl(propyl)phosphinic acid]
0.0005 to 0.02 µM	CP(=O)(O)c1ccc(C(NC(=O)c2cnc(-n3cccn3)nc2O)c2ccc(F)cc2)cc1 (stereo not shown) [Compound 17-1, 4-((4-fluorophenyl)(4-hydroxy-2-(1H-pyrazol-1-yl)pyrimidine-5-carboxamido)methyl)phenyl(methyl)phosphinic acid]
0.0005 to 0.02 µM	CP(=O)(O)c1ccc([C@H](NC(=O)c2cnc(-n3cccn3)nc2O)c2ccc(F)cc2)cc1 [Compound 18-1, 4-((R)-(4-fluorophenyl)(4-hydroxy-2-(1H-pyrazol-1-yl)pyrimidine-5-carboxamido)methyl)phenyl(methyl)phosphinic acid]
0.0005 to 0.02 µM	CP(=O)(O)c1ccc([C@@H](NC(=O)c2cnc(-n3cccn3)nc2O)c2ccc(F)cc2)cc1 [Compound 19-1, 4-((S)-(4-fluorophenyl)(4-hydroxy-2-(1H-pyrazol-1-yl)pyrimidine-5-carboxamido)methyl)phenyl(methyl)phosphinic acid]
0.0005 to 0.02 µM	CP(=O)(O)c1ccc([C@@H](NC(=O)c2cnc(-n3cccn3)nc2O)c2ccc(F)cc2F)cc1 [Compound 20-1, 4-((R)-(2,4-difluorophenyl)(4-hydroxy-2-(1H-pyrazol-1-yl)pyrimidine-5-carboxamido)methyl)phenyl(methyl)phosphinic acid]
0.0005 to 0.02 µM	CP(=O)(O)c1ccc([C@H](NC(=O)c2cnc(-n3cccn3)nc2O)c2ccc(F)cc2F)cc1 [Compound 21-1, 4-((S)-(2,4-difluorophenyl)(4-hydroxy-2-(1H-pyrazol-1-yl)pyrimidine-5-carboxamido)methyl)phenyl(methyl)phosphinic acid]
0.0005 to 0.02 µM	CP(=O)(O)c1ccc([C@@H](NC(=O)c2cnc(-n3cccn3)nc2O)c2ccccc2)cc1 [Compound 22-1, 4-((S)-(4-hydroxy-2-(1H-pyrazol-1-yl)pyrimidine-5-carboxamido)(phenyl)methyl)phenyl(methyl)phosphinic acid]
0.0005 to 0.02 µM	CP(=O)(O)c1ccc([C@H](NC(=O)c2cnc(-n3cccn3)nc2O)c2ccccc2)cc1 [Compound 23-1, 4-((R)-(4-hydroxy-2-(1H-pyrazol-1-yl)pyrimidine-5-carboxamido)(phenyl)methyl)phenyl(methyl)phosphinic acid]
0.0005 to 0.02 µM	CP(=O)(O)c1cccc([C@H](NC(=O)c2cnc(-n3cccn3)nc2O)c2ccccc2)c1 [Compound 24-1, 3-((R)-(4-hydroxy-2-(1H-pyrazol-1-yl)pyrimidine-5-carboxamido)(phenyl)methyl)phenyl(methyl)phosphinic acid]
0.0005 to 0.02 µM	CP(=O)(O)c1cccc([C@@H](NC(=O)c2cnc(-n3cccn3)nc2O)c2ccccc2)c1 [Compound 25-1, 3-((S)-(4-hydroxy-2-(1H-pyrazol-1-yl)pyrimidine-5-carboxamido)(phenyl)methyl)phenyl(methyl)phosphinic acid]
